# Laboratory results as given in the supplement of paper PMC10307832.
# Legend:
# Experiment in all cases: relative viability (nuclei count vs DMSO), 5 days (fraction); higher = more cells survive
# BEN = test system: BEN
# How it was run: (§1)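 Values are medians from duplicate plates. Each reflects relative viability, defined as the nuclei count of treated wells over that of vehicle wells. Lung cancer cell lines in 1536-well plates were pin-tool dosed one day after seeding with one drug alone or with a fixed anchor-drug dose plus five library-drug doses (not always all listed) in √10 steps, then fixed, stained and imaged at 4× after 5 days.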
# CAL-12T = test system: CAL-12T
# How it was run: as §1
# COR-L23 = test system: COR-L23
# How it was run: as §1
# HCC-44 = test system: HCC-44
# How it was run: as §1
# LU99A = test system: LU99A
# How it was run: as §1
# LXF-289 = test system: LXF-289
# How it was run: as §1
# NCI-H1355 = test system: NCI-H1355
# How it was run: as §1
# NCI-H1437 = test system: NCI-H1437
# How it was run: as §1
# NCI-H1563 = test system: NCI-H1563
# How it was run: as §1
# NCI-H1650 = test system: NCI-H1650
# How it was run: as §1
# NCI-H1651 = test system: NCI-H1651
# How it was run: as §1
# NCI-H1666 = test system: NCI-H1666
# How it was run: as §1
# NCI-H1755 = test system: NCI-H1755
# How it was run: as §1
# NCI-H1792 = test system: NCI-H1792
# How it was run: as §1
# NCI-H1993 = test system: NCI-H1993
# How it was run: as §1
# NCI-H2085 = test system: NCI-H2085
# How it was run: as §1
# NCI-H2087 = test system: NCI-H2087
# How it was run: as §1
# NCI-H2170 = test system: NCI-H2170
# How it was run: as §1
# NCI-H460 = test system: NCI-H460
# How it was run: as §1
# NCI-H520 = test system: NCI-H520
# How it was run: as §1
# PC-14 = test system: PC-14
# How it was run: as §1
# SK-MES-1 = test system: SK-MES-1
# How it was run: as §1
compound,measurement,setting,value
CCNC(=O)c1noc(-c2cc(C(C)C)c(O)cc2O)c1-c1ccc(CN2CCOCC2)cc1 [Luminespib] + C[C@@H](Oc1cc(-c2cnn(C3CCNCC3)c2)cnc1N)c1c(Cl)ccc(F)c1Cl [Crizotinib] (partner 1 µM),relative viability,BEN; first compound 0.002 µM,0.792
same,relative viability,BEN; first compound 0.006325 µM,0.834
same,relative viability,BEN; first compound 0.02 µM,0.416
same,relative viability,BEN; first compound 0.06325 µM,0.341
same,relative viability,BEN; first compound 0.2 µM,0.203
same,relative viability,CAL-12T; first compound 0.002 µM,0.7
same,relative viability,CAL-12T; first compound 0.006325 µM,0.635
same,relative viability,CAL-12T; first compound 0.02 µM,0.636
same,relative viability,CAL-12T; first compound 0.06325 µM,0.06
same,relative viability,CAL-12T; first compound 0.2 µM,0.0967
same,relative viability,COR-L23; first compound 0.002 µM,0.806
same,relative viability,COR-L23; first compound 0.006325 µM,0.629
same,relative viability,COR-L23; first compound 0.02 µM,0.81
same,relative viability,COR-L23; first compound 0.06325 µM,0.0713
same,relative viability,COR-L23; first compound 0.2 µM,0.0608
same,relative viability,HCC-44; first compound 0.002 µM,0.843
same,relative viability,HCC-44; first compound 0.006325 µM,0.768
same,relative viability,HCC-44; first compound 0.02 µM,1
same,relative viability,HCC-44; first compound 0.06325 µM,0.12
same,relative viability,HCC-44; first compound 0.2 µM,0.091
same,relative viability,LU99A; first compound 0.002 µM,0.606
same,relative viability,LU99A; first compound 0.006325 µM,0.628
same,relative viability,LU99A; first compound 0.02 µM,0.343
same,relative viability,LU99A; first compound 0.06325 µM,0.127
same,relative viability,LU99A; first compound 0.2 µM,0.112
same,relative viability,LXF-289; first compound 0.002 µM,0.825
same,relative viability,LXF-289; first compound 0.006325 µM,0.79
same,relative viability,LXF-289; first compound 0.02 µM,0.894
same,relative viability,LXF-289; first compound 0.06325 µM,0.459
same,relative viability,LXF-289; first compound 0.2 µM,0.123
same,relative viability,NCI-H1355; first compound 0.002 µM,1.1
same,relative viability,NCI-H1355; first compound 0.006325 µM,1.05
same,relative viability,NCI-H1355; first compound 0.02 µM,0.62
same,relative viability,NCI-H1355; first compound 0.06325 µM,1.08
same,relative viability,NCI-H1355; first compound 0.2 µM,1.08
same,relative viability,NCI-H1437; first compound 0.002 µM,0.92
same,relative viability,NCI-H1437; first compound 0.006325 µM,0.833
same,relative viability,NCI-H1437; first compound 0.02 µM,1.05
same,relative viability,NCI-H1437; first compound 0.06325 µM,0.83
same,relative viability,NCI-H1437; first compound 0.2 µM,0.478
same,relative viability,NCI-H1563; first compound 0.002 µM,0.937
same,relative viability,NCI-H1563; first compound 0.006325 µM,0.834
same,relative viability,NCI-H1563; first compound 0.02 µM,0.811
same,relative viability,NCI-H1563; first compound 0.06325 µM,0.473
same,relative viability,NCI-H1563; first compound 0.2 µM,0.536
same,relative viability,NCI-H1650; first compound 0.002 µM,0.944
same,relative viability,NCI-H1650; first compound 0.006325 µM,0.928
same,relative viability,NCI-H1650; first compound 0.02 µM,0.7
same,relative viability,NCI-H1650; first compound 0.06325 µM,0.12
same,relative viability,NCI-H1650; first compound 0.2 µM,0.134
same,relative viability,NCI-H1651; first compound 0.002 µM,0.85
same,relative viability,NCI-H1651; first compound 0.006325 µM,0.901
same,relative viability,NCI-H1651; first compound 0.02 µM,0.787
same,relative viability,NCI-H1651; first compound 0.06325 µM,0.813
same,relative viability,NCI-H1651; first compound 0.2 µM,0.63
same,relative viability,NCI-H1666; first compound 0.002 µM,1.04
same,relative viability,NCI-H1666; first compound 0.006325 µM,0.929
same,relative viability,NCI-H1666; first compound 0.02 µM,1.13
same,relative viability,NCI-H1666; first compound 0.06325 µM,1
same,relative viability,NCI-H1666; first compound 0.2 µM,0.756
same,relative viability,NCI-H1755; first compound 0.002 µM,0.878
same,relative viability,NCI-H1755; first compound 0.006325 µM,0.882
same,relative viability,NCI-H1755; first compound 0.02 µM,0.938
same,relative viability,NCI-H1755; first compound 0.06325 µM,0.756
same,relative viability,NCI-H1755; first compound 0.2 µM,0.315
same,relative viability,NCI-H1792; first compound 0.002 µM,0.981
same,relative viability,NCI-H1792; first compound 0.006325 µM,0.906
same,relative viability,NCI-H1792; first compound 0.02 µM,0.955
same,relative viability,NCI-H1792; first compound 0.06325 µM,0.435
same,relative viability,NCI-H1792; first compound 0.2 µM,0.119
same,relative viability,NCI-H1993; first compound 0.002 µM,0.929
same,relative viability,NCI-H1993; first compound 0.006325 µM,0.953
same,relative viability,NCI-H1993; first compound 0.02 µM,0.884
same,relative viability,NCI-H1993; first compound 0.06325 µM,0.743
same,relative viability,NCI-H1993; first compound 0.2 µM,0.47
same,relative viability,NCI-H2085; first compound 0.002 µM,1.04
same,relative viability,NCI-H2085; first compound 0.006325 µM,0.953
same,relative viability,NCI-H2085; first compound 0.02 µM,0.948
same,relative viability,NCI-H2085; first compound 0.06325 µM,0.383
same,relative viability,NCI-H2085; first compound 0.2 µM,0.272
same,relative viability,NCI-H2087; first compound 0.002 µM,0.934
same,relative viability,NCI-H2087; first compound 0.006325 µM,0.684
same,relative viability,NCI-H2087; first compound 0.02 µM,0.875
same,relative viability,NCI-H2087; first compound 0.06325 µM,0.156
same,relative viability,NCI-H2087; first compound 0.2 µM,0.145
same,relative viability,NCI-H2170; first compound 0.002 µM,1.19
same,relative viability,NCI-H2170; first compound 0.006325 µM,1.23
same,relative viability,NCI-H2170; first compound 0.02 µM,0.655
same,relative viability,NCI-H2170; first compound 0.06325 µM,1.08
same,relative viability,NCI-H2170; first compound 0.2 µM,0.355
same,relative viability,NCI-H460; first compound 0.002 µM,0.957
same,relative viability,NCI-H460; first compound 0.006325 µM,0.705
same,relative viability,NCI-H460; first compound 0.02 µM,0.0276
same,relative viability,NCI-H460; first compound 0.06325 µM,0.0089
same,relative viability,NCI-H460; first compound 0.2 µM,0.0097
same,relative viability,NCI-H520; first compound 0.002 µM,0.831
same,relative viability,NCI-H520; first compound 0.006325 µM,0.976
same,relative viability,NCI-H520; first compound 0.02 µM,0.845
same,relative viability,NCI-H520; first compound 0.06325 µM,0.0957
same,relative viability,NCI-H520; first compound 0.2 µM,0.0995
same,relative viability,PC-14; first compound 0.002 µM,0.973
same,relative viability,PC-14; first compound 0.006325 µM,0.845
same,relative viability,PC-14; first compound 0.02 µM,1.12
same,relative viability,PC-14; first compound 0.06325 µM,0.171
same,relative viability,PC-14; first compound 0.2 µM,0.102
same,relative viability,SK-MES-1; first compound 0.002 µM,0.984
same,relative viability,SK-MES-1; first compound 0.006325 µM,1.03
same,relative viability,SK-MES-1; first compound 0.02 µM,1.08
same,relative viability,SK-MES-1; first compound 0.06325 µM,0.758
same,relative viability,SK-MES-1; first compound 0.2 µM,0.147
